A word on the IC50: it is the concentration that inhibits the measured activity by half.

For the first assay, the target named is T1, human TLR8 (Homo sapiens, UniProt Q9NR97).
T1 construct: expressed in transfected cells
T1 sequence (Q9NR97 27-1041): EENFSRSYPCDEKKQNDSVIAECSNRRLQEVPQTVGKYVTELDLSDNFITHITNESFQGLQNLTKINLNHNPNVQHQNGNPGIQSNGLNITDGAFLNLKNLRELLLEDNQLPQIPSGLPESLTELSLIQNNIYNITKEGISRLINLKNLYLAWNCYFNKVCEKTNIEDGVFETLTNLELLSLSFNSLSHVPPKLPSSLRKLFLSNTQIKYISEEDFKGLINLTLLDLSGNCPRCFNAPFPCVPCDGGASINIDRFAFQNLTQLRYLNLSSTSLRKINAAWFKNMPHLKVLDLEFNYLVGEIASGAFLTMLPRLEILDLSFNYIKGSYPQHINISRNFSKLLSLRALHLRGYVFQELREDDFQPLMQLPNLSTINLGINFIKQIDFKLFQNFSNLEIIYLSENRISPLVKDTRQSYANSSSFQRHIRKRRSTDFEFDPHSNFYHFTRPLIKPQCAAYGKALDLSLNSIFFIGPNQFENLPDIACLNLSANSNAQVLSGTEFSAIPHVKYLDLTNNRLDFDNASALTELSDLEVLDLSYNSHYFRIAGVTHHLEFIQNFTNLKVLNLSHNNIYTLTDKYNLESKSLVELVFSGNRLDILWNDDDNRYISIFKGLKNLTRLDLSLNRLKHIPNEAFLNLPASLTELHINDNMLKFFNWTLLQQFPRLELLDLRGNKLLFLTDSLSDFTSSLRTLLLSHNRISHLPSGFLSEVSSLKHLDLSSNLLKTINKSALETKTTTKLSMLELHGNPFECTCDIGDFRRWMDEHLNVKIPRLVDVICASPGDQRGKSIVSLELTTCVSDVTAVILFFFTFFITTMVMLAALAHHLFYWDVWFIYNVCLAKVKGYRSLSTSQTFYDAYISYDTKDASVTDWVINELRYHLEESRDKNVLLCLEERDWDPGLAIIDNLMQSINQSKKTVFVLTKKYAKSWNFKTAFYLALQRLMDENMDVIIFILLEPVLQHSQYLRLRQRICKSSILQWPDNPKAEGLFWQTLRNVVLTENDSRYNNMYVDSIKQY
The assay is described as follows: HEK-Blue hTLR8 SEAP reporter gene inhibition assay. It counts as cell-based. The following applies: HEK-Blue hTLR8 IC50 (µM). The protocol:
HEK-Blue cells with stable expression of human TLR7 or TLR8 were used in the evaluation of inhibitory activity of compounds in the present invention against TLR7 or TLR8, by using its ability to induce the SEAP reporting gene under the control of the fusion of IFN-β minimum promoters into five NF-κB and ap-1 binding sites, as follows: hTLR7 HEK-Blue cells (Invivogen, 80, 000 cells per well) or hTLR8 HEK-Blue cells (60, 000 cells per well) were added to a 96-well cell culture plate. A solution of the testing compounds were added to each well, with the final concentration of tested compounds in the medium ranged from 0.001 to 36 µM and the culture was incubated for 15 minutes. M5049 was used as positive controls in the testing.
Then a TLR7 ligand (Gardiquimod, purchased from MedChemExpress, with final concentration of ligand in cell culture medium kept at 10 µM) or a TLR8 ligand (purchased from MedChemExpress with final concentration in cell culture media at 10 µM) and the culture was incubated for 20 hours. According to the manufacturer's instructions, a HEK-Blue reagent Quanti-blue (Invivogen) was used to detect the SEAP levels in cell cultures. The half […] concentration or IC50 was calculated by using GraphPad Prism. […] Table 1: Activities of examples in this invention to hTLR7/8 in HEK-Blue Cells
Regarding `C[C@@H]1CN(c2ccc(C#N)n3ncc(F)c23)Cc2c3c(nn21)CN(Cc1ccn[nH]1)CC3` [Example I-29], the IC50 is < 0.1 µM.

Staying with this assay, now noted: hTLR8 HEK-Blue cells, TLR8 ligand 10 µM, 20 hours, SEAP by Quanti-blue; class symbols; read-out: HEK-Blue hTLR8 IC50.
As to “4-((4R,9S)-4,9-dimethyl-8-((2R,6R)-6-methylmorpholine-2-carbonyl)-3,4,7,8,9,10-hexahydropyrido[3',4':3,4]pyrazolo[1,5-a]pyrazin-2(1H)-yl)-3-fluoropyrazolo[1,5-a]pyridine-7-carbonitrile [Example I-122]”, the IC50 was < 0.1 µM. Consider “4-((4R,9S)-8-(L-prolyl)-4,9-dimethyl-3,4,7,8,9,10-hexahydropyrido[3',4':3,4]pyrazolo [1,5-a]pyrazin-2(1H)-yl)-3-fluoropyrazolo[1,5-a]pyridine-7-carbonitrile [Example I-114]”, for which the IC50 is < 0.1 µM. The same measure, in the same setting: to `CCC1CN(c2ccc(C#N)n3ncc(F)c23)Cc2c3c(nn21)CNCC3` (centres unmarked) [Example I-17, 4-(4-Ethyl-3,4,7,8,9,10-hexahydropyrido[3',4':3,4]pyrazolo[1,5-a]pyrazin-2(1H)-yl)-3-fluoropyrazolo[1,5-a]pyridine-7-carbonitrile] belongs > 0.1 µM; to `C[C@@H]1CN(c2ccc(C#N)n3ncc(F)c23)Cc2c3c(nn21)CN(CCO)CC3` [Example I-19, (R)-3-Fluoro-4-(8-(2-hydroxyethyl)-4-methyl-3,4,7,8,9,10-hexahydropyrido[3',4':3,4]pyrazolo[1,5-a]pyrazin-2(1H)-yl)pyrazolo[1,5-a]pyridine-7-carbonitrile], > 0.1 µM. On the same count and under the same terms, to `C[C@@H]1CN(c2ccc(C#N)n3ncc(F)c23)Cc2c3c(nn21)CC(N)CC3` (stereo partly drawn) [Example I-20, 4-((4R)-8-amino-4-methyl-3,4,7,8,9,10-hexahydropyrazino[1,2-b]indazol-2(1H)-yl)-3-fluoropyrazolo[1,5-a]pyridine-7-carbonitrile] belongs < 0.1 µM. On the same count and under the same terms, to `C[C@@H]1CN(c2ccc(C#N)n3ncc(F)c23)Cc2c3c(nn21)CC(N1CCOCC1)CC3` (stereo partly drawn) [Example I-31, 3-Fluoro-4-((4R)-4-methyl-8-morpholino-3,4,7,8,9,10-hexahydropyrazino[1,2-b]indazol-2(1H)-yl)pyrazolo[1,5-a]pyridine-7-carbonitrile] belongs < 0.1 µM; to `C[C@@H]1CN(c2ccc(C#N)n3ncc(F)c23)Cc2c3c(nn21)CN(C1CCNCC1O)C(=O)C3` (stereo partly drawn) [Example I-32, 3-Fluoro-4-((4R)-8-(3-hydroxypiperidin-4-yl)-4-methyl-9-oxo-3,4,7,8,9,10-hexahydropyrido[3',4':3,4]pyrazolo[1,5-a]pyrazin-2(1H)-yl)pyrazolo[1,5-a]pyridine-7-carbonitrile], < 0.1 µM.

In the case of `C[C@@H]1CN(c2ccc(C#N)n3ncc(F)c23)Cc2c3c(nn21)C(CO)CNC3` (stereo partly drawn) [Example I-35, 3-Fluoro-4-((7R)-4-(hydroxymethyl)-7-methyl-1,3,4,7,8,10-hexahydropyrido[4',3':3,4]pyrazolo[1,5-a]pyrazin-9(2H)-yl)pyrazolo[1,5-a]pyridine-7-carbonitrile], the IC50 is < 0.1 µM. The same measure, in the same setting: to `C[C@@H]1CN(c2ccc(C#N)n3ncc(F)c23)Cc2c3c(nn21)CC(CO)NC3` (stereo partly drawn) [Example I-36, 3-Fluoro-4-((7R)-3-(hydroxymethyl)-7-methyl-1,3,4,7,8,10-hexahydropyrido[4',3':3,4]pyrazolo[1,5-a]pyrazin-9(2H)-yl)pyrazolo[1,5-a]pyridine-7-carbonitrile] belongs < 0.1 µM. Still for that read-out and setting: the same measure for `C[C@@H]1CN(c2ccc(C#N)n3ncc(F)c23)Cc2c3c(nn21)CC(N)C(O)C3` (stereo partly drawn) [Example I-37, 4-((4R)-8-amino-9-hydroxy-4-methyl-3,4,7,8,9,10-hexahydropyrazino [1,2-b]indazol-2(1H)-yl)-3-fluoropyrazolo[1,5-a]pyridine-7-carbonitrile]: < 0.1 µM. Consider `C[C@@H]1CN(c2ccc(C#N)n3ncc(F)c23)Cc2c3c(nn21)CNCC3O` (stereo partly drawn) [Example I-38, 3-Fluoro-4-((4R)-10-hydroxy-4-methyl-3,4,7,8,9,10-hexahydropyrido[3',4':3,4]pyrazolo[1,5-a]pyrazin-2(1H)-yl)pyrazolo[1,5-a]pyridine-7-carbonitrile], for which the half-maximal inhibitory concentration (IC50) was > 0.1 µM. Same read-out and setting: to `C[C@@H]1CN(c2ccc(C#N)n3ncc(F)c23)Cc2c3c(nn21)CC1CCC3N1` (stereo partly drawn) [Example I-44, 3-Fluoro-4-((4R)-4-methyl-1,3,4,7,8,9,10,11-octahydro-2H-8,11-epiminocyclohepta [3,4]pyrazolo[1,5-a]pyrazin-2-yl)pyrazolo[1,5-a]pyridine-7-carbonitrile] belongs < 0.1 µM; to `C[C@@H]1CN(c2ccc(C#N)n3ncc(F)c23)Cc2c3c(nn21)CCNC3CO` (stereo partly drawn) [Example I-46, 3-fluoro-4-((7R)-1-(hydroxymethyl)-7-methyl-1,3,4,7,8,10-hexahydropyrido[4',3':3,4]pyrazolo[1,5-a]pyrazin-9(2H)-yl)pyrazolo[1,5-a]pyridine-7-carbonitrile], < 0.1 µM; to `C[C@@H]1CN(c2ccc(C#N)n3ncc(F)c23)Cc2c3c(nn21)CC(CN1CCOCC1)NC3` (stereo partly drawn) [Example I-47, 3-Fluoro-4-((7R)-7-methyl-3-(morpholinomethyl)-1,3,4,7,8,10-hexahydropyrido [4',3':3,4]pyrazolo[1,5-a]pyrazin-9(2H)-yl)pyrazolo[1,5-a]pyridine-7-carbonitrile], > 0.1 µM.

In the case of `CC(C)CC1NCCc2c1nn1c2CN(c2ccc(C#N)n3ncc(F)c23)C[C@H]1C` (stereo partly drawn) [Example I-69, 3-Fluoro-4-((4R)-7-isobutyl-4-methyl-3,4,7,8,9,10-hexahydropyrido[3',4':3,4]pyrazolo [1,5-a]pyrazin-2(1H)-yl)pyrazolo[1,5-a]pyridine-7-carbonitrile], the IC50 is < 0.1 µM. On to `CC(C)C1NCCc2c1nn1c2CN(c2ccc(C#N)n3ncc(F)c23)C[C@H]1C` (stereo partly drawn) [Example I-70, 3-Fluoro-4-((4R)-7-isopropyl-4-methyl-3,4,7,8,9,10-hexahydropyrido[3',4':3,4]pyrazolo[1,5-a]pyrazin-2(1H)-yl)pyrazolo[1,5-a]pyridine-7-carbonitrile], for which the IC50 is < 0.1 µM. On the same count and under the same terms, the same measure for `C[C@@H]1CN(c2ccc(C#N)n3ncc(F)c23)Cc2c3c(nn21)CC(C)(N)CC3` (stereo partly drawn) [Example I-71, 4-((4R)-8-amino-4,8-dimethyl-3,4,7,8,9,10-hexahydropyrazino[1,2-b]indazol-2(1H)-yl)-3-fluoropyrazolo[1,5-a]pyridine-7-carbonitrile]: < 0.1 µM; for `C[C@@H]1CN(c2ccc(C#N)n3ncc(F)c23)Cc2c3c(nn21)CC(C)(C)NC3` [Example I-78, (R)-3-Fluoro-4-(3,3,7-trimethyl-1,3,4,7,8,10-hexahydropyrido[4',3':3,4]pyrazolo [1,5-a]pyrazin-9(2H)-yl)pyrazolo[1,5-a]pyridine-7-carbonitrile]: < 0.1 µM; for `COC[C@@H]1CCCN1CC(=O)N1Cc2nn3c(c2C[C@@H]1C)CN(c1ccc(C#N)n2ncc(F)c12)C[C@H]3C` [Example I-109, 3-Fluoro-4-((4R,9S)-8-(2-((S)-2-(methoxymethyl)pyrrolidin-1-yl)acetyl)-4,9-dimethyl-3,4,7,8,9,10-hexahydropyrido[3',4':3,4]pyrazolo[1,5-a]pyrazin-2(1H)-yl)pyrazolo[1,5-a]pyridine-7-carbonitrile]: < 0.1 µM.

Source of the values: EP4644396A1 (Visionpharma (Nantong) Co., Ltd, priority 2022, dated 2024).
